Data as given in publication PMC7958298 (Journal of the American Chemical Society, 2020).

Assays:
pre-miRNA-21 stem = assay: BLI binding to pre-miRNA-21 stem missing the hairpin loop; conditions: relative to pre-miRNA-21 hairpin, SI Figure 1
[1] = system: hairpin derived from HIV RNA; assay: BLI binding to unrelated hairpin derived from HIV RNA; conditions: SI Figure 1
pre-miRNA-21 = assay: Circular dichroism melting of pre-miRNA-21; format: physicochemical; conditions: pre-miRNA-21 alone vs with 39, SI Figure 3

Substance: Lys-DabG-hAlaA-Arg-Asp-DabA-Leu-hAlaG-Ala-Lys [Compound 39]
- reduction of affinity towards the pre-miRNA-21 stem, missing the hairpin loop (pre-miRNA-21 stem): over 50 fold
- binding to unrelated hairpin derived from HIV RNA [1]: high affinity
- shift in melting temperature of pre-miRNA-21 in the presence of peptide (pre-miRNA-21): no significant shift in melting temperature
